{"source": "patent US20060128762A1", "about": "“Medicinal composition and method for treating malignant tumor and utilization thereof” (D.Western Therapeutics Institute, priority 2002, published 2006)", "key": {"[1]": {"test_system": "Murine Monocytic Leukemia P388", "assay": "Antitumor effect on P388 murine monocytic leukemia transplanted into mouse (survival)", "type": "in vivo", "set-up": "MST (median survival time): unit not given here", "settings": "for MST (median survival time) / Survival number on day 50 / T/C (%): N = 6; for survival rate on day 5: administered alone", "protocol": "Monocytic leukemia cell line P388 was purchased from Japanese Foundation for Cancer Research, Cancer Chemotherapy Center. The cryopreserved tumor was transplanted intraperitoneally into DBA/2 mouse (Japan SLC, Inc.). When the abdominal bloating was observed, ascites was removed and subjected to the test.\n(§1) Compound 2 was weighed and ground down in an agate motor. It was then suspended slowly in the motor by adding 0.5% aqueous methylcellulose solution (M.C.) step by step to obtain 10 mg/ml suspension. The suspension was further diluted with M.C. to obtain a normal concentration and stored at 4° C. CDDP was dissolved and diluted with physiological saline. Immediately after preparation, the CDDP solution was subjected to test.\nMale 4-week-old DBA/2 mice (n=10, 2 mice for the present test) and male 4-week-old CDF1 mice (DBA/2×BALB/c) (n=156) were purchased from Japan SLC, Inc., and used six animals per group. Animals were kept in a chamber maintained at room temperature of 21 to 25° C. and humidity of 45-65% with a given lighting time intervals (light period: 7:00 to 19:00; dark period: 19:00 to 7:00) and allowed to access freely to feed (F-2, Funabashi Nojo) and tap water. The animals purchased were used in the test after subjecting to taming and quarantine for 1 week.\nThe cryopreserved P388 cell lines were transplanted intraperitoneally into DBA/2 mouse. When the abdominal bloating was observed, ascites containing cancer cells were removed. The ascites was diluted with phosphate-buffered physiological saline (PBS, pH7.4) until the cell concentration became 5×10^6 cells/ml. The resultant solution (0.2 ml) was transplanted intraperitoneally into CDF1 mouse (1×10^6 cells/mouse). The drug was administered to mouse (0.1 ml/10 g body weight) on and after the next day of transplantation.\nCompound 2 was administered orally and CDDP intraperitoneally. Animals of control group were untreated because of diversity of administration route and complexity of administration schedule.\nThe administration was started on the next day (day 1) of transplantation of tumor according to the protocol shown in Table 1, i.e., day 1; day 2; or day 1 and 2."}, "[2]": {"assay": "Stability of the suspension in 0.5% aqueous methylcellulose solution", "type": "physicochemical", "settings": "suspension in 0.5% aqueous methylcellulose solution (M.C.), in a cold place", "protocol": "as §1, with “test. It is assured that the suspension of Compound 2 in M.C. is homogeneous and stable for 14 days in a cold place.” for “test.”"}, "[3]": {"settings": "Compound 2 25 mg/kg p.o on day 1"}, "[4]": {"settings": "Compound 2 25 mg/kg p.o on day 2"}, "[5]": {"settings": "Compound 2 50 mg/kg p.o on day 1"}, "[6]": {"settings": "Compound 2 50 mg/kg p.o on day 2"}, "[7]": {"settings": "Compound 2 100 mg/kg p.o on day 1"}, "[8]": {"settings": "Compound 2 100 mg/kg p.o on day 2"}}}
{"smiles": "N.N.[Cl][Pt][Cl]", "note": "[CDDP, cis-platinum (II) diamine chloride, reference compound]", "values": [{"measurement": "MST (median survival time)", "setting": "[1]; CDDP 2.5 mg/kg i.p on day 1", "result": 14.5}, {"measurement": "Survival number on day 50", "setting": "[1]; CDDP 2.5 mg/kg i.p on day 1", "result": 0}, {"measurement": "T/C (%)", "setting": "[1]; CDDP 2.5 mg/kg i.p on day 1", "result": 145, "unit": "%"}, {"measurement": "MST (median survival time)", "setting": "[1]; CDDP 2.5 mg/kg i.p on day 2", "result": 15.5}, {"measurement": "Survival number on day 50", "setting": "[1]; CDDP 2.5 mg/kg i.p on day 2", "result": 0}, {"measurement": "T/C (%)", "setting": "[1]; CDDP 2.5 mg/kg i.p on day 2", "result": 155, "unit": "%"}, {"measurement": "MST (median survival time)", "setting": "[1]; CDDP 5 mg/kg i.p on day 1", "result": 17}, {"measurement": "Survival number on day 50", "setting": "[1]; CDDP 5 mg/kg i.p on day 1", "result": 0}, {"measurement": "T/C (%)", "setting": "[1]; CDDP 5 mg/kg i.p on day 1", "result": 170, "unit": "%"}, {"measurement": "MST (median survival time)", "setting": "[1]; CDDP 5 mg/kg i.p on day 2", "result": 17}, {"measurement": "Survival number on day 50", "setting": "[1]; CDDP 5 mg/kg i.p on day 2", "result": 0}, {"measurement": "T/C (%)", "setting": "[1]; CDDP 5 mg/kg i.p on day 2", "result": 170, "unit": "%"}, {"measurement": "MST (median survival time)", "setting": "[1]; CDDP 10 mg/kg i.p on day 1", "result": 17}, {"measurement": "Survival number on day 50", "setting": "[1]; CDDP 10 mg/kg i.p on day 1", "result": 0}, {"measurement": "T/C (%)", "setting": "[1]; CDDP 10 mg/kg i.p on day 1", "result": 170, "unit": "%"}, {"measurement": "MST (median survival time)", "setting": "[1]; CDDP 10 mg/kg i.p on day 2", "result": 17}, {"measurement": "Survival number on day 50", "setting": "[1]; CDDP 10 mg/kg i.p on day 2", "result": 0}, {"measurement": "T/C (%)", "setting": "[1]; CDDP 10 mg/kg i.p on day 2", "result": 170, "unit": "%"}, {"measurement": "survival rate on day 5", "setting": "[1]", "result": "not observed"}]}
{"smiles": "COc1ccc(S(=O)(=O)N(C(C)=O)c2ccccc2/C=C/c2cc[n+]([O-])cc2)cc1", "note": "[Compound 2, (E)-4-[2-[2-[N-acetyl-N-[(p-methoxyphenyl)sulfonyl]-amino]phenyl]ethenyl]pyridine 1-oxide]", "values": [{"measurement": "time for which the suspension in M.C. is homogeneous and stable", "setting": "[2]", "result": 14, "unit": "days"}, {"measurement": "MST (median survival time)", "setting": "[1]; [3]", "result": 12.5}, {"measurement": "Survival number on day 50", "setting": "[1]; [3]", "result": 0}, {"measurement": "T/C (%)", "setting": "[1]; [3]", "result": 125, "unit": "%"}, {"measurement": "MST (median survival time)", "setting": "[1]; [4]", "result": 13}, {"measurement": "Survival number on day 50", "setting": "[1]; [4]", "result": 0}, {"measurement": "T/C (%)", "setting": "[1]; [4]", "result": 130, "unit": "%"}, {"measurement": "MST (median survival time)", "setting": "[1]; [5]", "result": 13}, {"measurement": "Survival number on day 50", "setting": "[1]; [5]", "result": 0}, {"measurement": "T/C (%)", "setting": "[1]; [5]", "result": 130, "unit": "%"}, {"measurement": "MST (median survival time)", "setting": "[1]; [6]", "result": 13}, {"measurement": "Survival number on day 50", "setting": "[1]; [6]", "result": 0}, {"measurement": "T/C (%)", "setting": "[1]; [6]", "result": 130, "unit": "%"}, {"measurement": "MST (median survival time)", "setting": "[1]; [7]", "result": 16.5}, {"measurement": "Survival number on day 50", "setting": "[1]; [7]", "result": 0}, {"measurement": "T/C (%)", "setting": "[1]; [7]", "result": 165, "unit": "%"}, {"measurement": "MST (median survival time)", "setting": "[1]; [8]", "result": 15}, {"measurement": "Survival number on day 50", "setting": "[1]; [8]", "result": 0}, {"measurement": "T/C (%)", "setting": "[1]; [8]", "result": 150, "unit": "%"}, {"measurement": "survival rate on day 5", "setting": "[1]", "result": "not observed"}]}
